According to patent US4968686A, “Acyclic pyrrolo [2,3-d]pyrimidine analogs as antiviral agents” (The Regents of The University of Michigan, priority 1989, dated 1990):

Assays:
HCMV DNA synthesis = HCMV DNA synthesis by dot-blot hybridization; assay type: cell-based, human cytomegalovirus in HFF cells; conditions: Human betaherpesvirus 5, read-out: HCMV DNA Synthesis, 50% Inhibitory Concentration
Description: The amount of HCMV DNA synthesis was determined in two types of experiments: (a) as an integral part of HCMV titer (yield) reduction experiments and (b) as separate experiments to determine only the amount of viral DNA synthesis in the absence or presence of test compounds.
HFF cells were planted in 25 cm^2 flasks and infected with HCMV as described in part 2 and incubated at 37° C. Before harvesting at selected times by the addition of 0.1 volume of 0.2M EDTA, an aliquot of medium was removed for determination of HCMV titer. After harvesting cells into the medium, aliquots were retained for determination of HCMV DNA by hybridization.
HFF cells were planted in 96-well cluster plates at 20,000 cell/well in 200 μl of growth medium [MEM(E)] with 1.1 gm/liter NaHCO3 and 10% fetal bovine serum. After incubation in a humidified atmosphere of 4% CO2 -96% air for 1 to 2 days, growth medium was aspirated and the 70% confluent cells were infected at a m.o.i. of 0.5 p.f.u. per cell by addition of HCMV in 100 μl of MEM(E) with 1.1 gm/l liter NaHCO3 and 5% fetal bovine serum (maintenance medium). Following a 1-hour incubation at 37° C. for virus adsorption, 100 μl of selected concentrations of test compounds were added to each of triplicate wells in twice their final concentration of maintenance medium. Usually 3 to 6 concentrations of compounds were tested in 3.2- or 10-fold dilutions along with appropriate triplicate no drug and no virus controls. Plates were incubated for 7 days and harvested by addition of 100 μl of 0.25M EDTA per well. After a 30-minute incubation of 37° C. to free the cells, the contents of the wells were filtered as described below or frozen at -76° C. for subsequent analysis. The following procedure adapted from Gadler, H., Antimicrob. Agents Chemother., 24:370 (1983) was employed for the hybridization portion of the assay:
The contents of each well were removed and filtered through Gene Screen™ (NEN Research Products), presoaked in 10×SSC (1×SSC is 0.15M NaCl, 0.015M NaCitrate), using a 96-well filtration manifold (Schleicher and Schuell). The original microtiter plate wells were rinsed with 200 μl HEPES buffered saline and the contents added to the filter manifold.
The Gene Screen membrane was dried at room temperature and then baked at 80° to 100° C. for 3 to 4 hours. The DNA on the membrane was denatured by placing the membrane (sample side up) sequentially on filter papers soaked in (a) 0.5M NaOH for 30 minutes, (b) 0.1 M NaOH, 1.5M NaCl for 5 minutes, (c) 1M Tris HCl, pH 7.5 twice each for 5 minutes, (d) 0.5M Tris HCl, pH 7.5, 1.5M NaCl for 5 minutes and then dried at room temperature. The membrane was added to a "hybridization bag" and prehybridized at 65° C. for (greater or equal to) 6 hours in 10 ml 0.2% polyvinylpyrrolidone (MW 40,000); 0.2% ficoll (MW 400,000); 0.2% bovine serum albumin; 0.05 M Tris HCl, pH 7.5; 0.1% sodium pyrophosphate; 1M NaCl; 10% dextran sulfate (ME 500,000) and 0.1 mg/ml denatured salmon testes DNA. […]
Following hybridization, the membrane was washed sequentially in 100 ml 2×SSC at room temperature twice each for 5 minutes, 100 ml 2×SCC plus 1% SDS at 65° C. twice each for 30 minutes and then 100 ml 0.1×SSC at room temperature twice each for 30 minutes. The membrane was dried at room temperature and each filtration spot was cut from the membrane and placed into 4 ml of toluene/DPO scintillant and hybridized label counted in a liquid scintillation spectrometer. […]

KB cells = experiment: cells; assay type: cell-based, human; conditions: Homo sapiens; [3H]dThd incorporation, KB cells; read-out: I50 on [3H]dThd incorporation
Description: KB or HFF cells were planted using a Costar Transplate-96 (Costar, Cambridge, Mass.) in Costar 96-well cluster dishes at a concentration of 10,000 to 12,000 cells per well. Wells were suspended in 200 μl of medium [MDM(H) plus 0.7 gm/liter NaCHO3 supplemented with 10% calf serum] per well. After incubation of 16 to 24 hours at 37° C. in a humidified atmosphere of 4% CO2 in air, […] of medium was removed per well. One-hundred μl of medium with or without compounds in twice their final concentrations was added to each well using a Titertek Multichannel Pipette. Final concentrations of compounds ranged from 0.1 to 320 μM. Fifty μl of medium containing radioactive precursors also was added to each well to give a final concentration to 1 to 3 μCi/ml of labeled precursor. [^3 H]Thd was diluted with unlabeled dThd to give a final concentration of 3 or 6 μM.
Logarithmic cell growth occurred during this time with continual uptake of labeled precursors. At the end of the incubation period, cells were individually harvested from each well using a Skatron Cell harvester (Skatronh, Inc., Sterling, Va.). Cultures for individual wells were harvested onto filter paper and washed free of unincorporated label with nine sequential washes with 5% trichloroacetic acid, nine washes with water, and nine with ethanol using the Skatron unit. Filters were dried, circles from individual cultures were punched from the filter mat and placed into mini-vials. Liquid scintillation solution was added, and radioactivity determined in a Beckman model LS8100 liquid scintillation spectrometer. All samples were counted for 2.0 minutes each, with three rounds of counting. Counts per minute were determined following the application of statistical methods to eliminate count rates which fell outside distribution limits defined by Chauvenet's rejection criterion.
All analyses were performed in triplicate. That is, three culture wells were used per time point, radioactive precursor, and drug concentration in all experiments. Results from triplicate assays were converted to percent of control and plotted as log dose-response curves from which 50% inhibitor (I50) concentrations were interpolated. Three concentrations of vidarabine were included on all plates as a positive control.
Dose-response relationships were used to compare drug effects. These were constructed by linearly regressing the percent inhibition of parameters derived in the preceding sections against log drug concentrations. The 50% inhibitory (I50) concentrations were calculated from the regression lines using the methods described by Goldstein. See Goldstein, A., Biostatistics: An Introductory Text, MacMillan, N.Y., 1964, pp. 156-161. Along with the I50 concentration for visual cytotoxicity, the averaged I50 concentrations are compared to I50 concentrations for inhibition for HCMV or HSV-1 replication. Compounds for which the ratio of cytotoxicity I50 concentrations to antiviral I50 concentrations (in vitro therapeutic index) were greater than 10, were considered for further study.

Compound	IC50 (HCMV DNA synthesis)	IC50 (KB cells)
Nc1nc2c(ncn2COCCO)c(=O)[nH]1 [Acyclovir, reference compound]	35 µM	–
Nc1nc(O)c2ncn(COC(CO)CO)c2n1 [Ganciclovir (DHPG), reference compound]	1.1 µM	–
Nc1ncnc2c1c(Cl)cn2COCCO [UMJD 100, 4-Amino-5-chloro-7-(2-hydroxyethoxymethyl)pyrrolo[2,3-d]-pyrimidine]	15 µM	0.82 µM
Nc1ncnc2c1c(Br)cn2COCCO [UMJD 102, 4-Amino-5-bromo-7-(2-hydroxyethoxymethyl)pyrrolo[2,3-d]-pyrimidine]	3.2 µM	0.13 µM
Nc1ncnc2c1c(I)cn2COCCO [UMJD 104, 4-Amino-5-iodo-7-(2-hydroxyethoxymethyl)pyrrolo[2,3-d]-pyrimidine]	47 µM	1.2 µM
Nc1ncnc2c1c(Cl)cn2COC(CO)CO [UMJD 186, 4-amino-5-chloro-7-[(1,3-dihydroxy-2-propoxy)-methyl]pyrrolo[2,3-d]pyrimidine]	–	28 µM
